Measured values: publication PMC5711809, “Bayesian Analysis of MicroScale Thermophoresis Data to Quantify Affinity of Protein:Protein Interactions with Human Survivin” (Scientific Reports, 2017)
Peptide text beside a SMILES is read from it.

Assay: solubility in typical aqueous buffers
Format: physicochemical

## CC(C)C[C@H](NC(=O)[C@H](CO)NC(=O)[C@H](CC(N)=O)NC(=O)[C@@H](NC(=O)[C@H](CCCCN)NC(=O)[C@H](C)NC(=O)[C@@H](NC(=O)[C@H](CCCNC(=N)N)NC(=O)[C@H](CO)NC(=O)[C@H](CO)NC(=O)CN)C(C)C)[C@@H](C)O)C(=O)N[C@@H](CCCNC(=N)N)C(=O)N[C@@H](CCCNC(=N)N)C(=O)N[C@@H](CCCNC(=N)N)C(=O)N[C@@H](CCCCN)C(=O)O [Borealin^6–20, GSSRVAKTNSLRRRK] (H-GSSRVAKTNSLRRRK-OH)
  solubility (in words): soluble
